Assay results published in patent USRE32935E, “Non-toxic organotin stabilizers for vinyl chloride polymers” (M&T Chemicals, Inc., priority 1985, dated 1989).
Like-named read-outs stand apart in the source and are kept apart here.

How the values were obtained:
beagle dogs = test: 13 week feeding study in beagle dogs; format: in vivo, dog
Procedure: A second feeding study was conducted for a period of 13 weeks using beagle dogs to determine the maximum concentration of the mono-n-octyltin mercaptoacetic acid esters of this invention which can be present in the food of these animals without causing any observable toxicological effect. This concentration level is referred to as the "no-effect level" by the United States Food and Drug Administration. A stabilizer of this invention mono-n-octyltin S,S',S"-tris(isooctylmercaptoacetate) was added to the food consumed by the dogs in amounts of 0, 100, 300 and 1,000 parts per million. […] This level of toxicity is considered to be unexpectedly low for an organotin compound.
The criteria employed to determine the absence of toxicological effects included general appearance, health, growth and food intake; blood analyses for enzyme activity and serum protein; kidney damage by urine analysis; change in weight of internal organs and presence of the tin compound in the kidneys, bones, brain, liver and blood.

[1] = relative acute toxicity of the isooctylmercaptoacetate derivatives; format: in vivo
Description: This is contrary to the generally accepted, although inaccurate, generalization that a monoalkyltin compound is less toxic than the corresponding di- and trialkyltin compounds. […] This finding directly contradicts data concerning the relative toxicities of mono-, di- and triorganotin compounds that were published prior to March, 1973, the filing date of Applicant's earliest application disclosing the present stabilizer compositions.

[2] = extraction of tin from blow molded vinyl chloride polymer bottles; format: physicochemical; conditions: 49° C
Procedure: A number of 16 ounce (475 cc) capacity cylindrical bottles were prepared by blow molding using the following formulation: […]
The three stabilizers evaluated were n-octyltin-S,S',S"-tri(isooctyl mercaptoacetate), di-n-octyltin-S,S'-bis(isooctyl mercaptoacetate) and a mixture containing equal parts by weight of these two compounds.
The bottles were filled with the desired extractant and then placed in an oven maintained at a temperature of 49° C. for the time periods specified in the following table. A portion of the contents of the bottle was then analyzed to determine the concentration of tin.

[3] = migration from milled/pressed polyvinyl chloride sheet into extractants (colorimetric tin analysis); format: physicochemical; conditions: 10 days, 40° C; distilled water, 3% acetic acid, peanut oil, 10% ethanol; 1.5 parts stabilizer
Procedure: A mixture containing 100 parts of a commercially available vinyl chloride homopolymer(Solvic 223), 0.02 part of a half glycol ester -half calcium soap of montanic acid (available as Hoechst Wax OP) together with 1.5 parts of mono-n-octyltin-S,S',S"-tris(isooctylmercaptoacetate) was blended by placing the components on a 2-roll mill wherein the roll temperature was between 160° and 170° C. During the three minute milling period a continuous sheet formed around one of the rollers and was removed. The sheet measured 1.3 m.m. in thickness and about 300 cm.^2 in area. The sheet was pressed at a temperature of 170° C. to obtain a thickness of 1.2 m.m. The total pressing time, including a two minute preheating period, was five minutes. Square samples measurng 30 cm.^2 in total surface area were immersed in one of the extractants for 10 days, during which time the temperature of the extractant was maintained at 40° C. The extractants employed were distilled water, a 3% aqueous solution of acetic acid, peanut oil and a 10% by weight aqueous solution of ethanol. […] The quantity of peanut oil was 30 c.c.
The migration of stabilizer from the polyvinyl chloride sample into the extractant was determined by measuring the concentration of tin in the extractant using colormetric analysis of the tin - pyrocatechol violet complex. […]

albino rats = test: acute oral median lethal dose in young male albino rats; format: in vivo, rat
Procedure: Young albino rats were used as the test animals. All animals were kept under observation for five days prior to experimental use, during which period they were checked for general physical health and suitability as test animals. The animals were housed in stock cages and were permitted a standard laboratory diet plus water ad libitum, except during the 16-hour period immediately prior to oral intubation, when food was withheld.
Selected groups of four male albino rats each were administered the undiluted test material at dose levels of 900, 1350, 2,025 and 3,038 mg. per kilogram of body weight. All doses were administered directly into the stomachs of the rats using a hypodermic syringe equipped with a ball-tipped intubating needle.
After oral administration of the test material, the rats were housed individually in suspended, wire-mesh cages and observed for the following 14 days. A necropsy was conducted on any animal which died during the study and on all animals sacrificed at the end of the 14-day observation period.
The acute oral median lethal dose (LD50) was calculated using the techniques of Weil, Thompson and Thompson and Weil as reported in the following references: […]

rats = conditions: force-feeding, table of Neumann; cited from earlier work
[4] = compared with di- and trioctyltin chlorides, cited from earlier work
[5] = prior art statements; cited from earlier work
[6] = 3% Acetic Acid (aqueous), 24 hours
[7] = 3% Acetic Acid (aqueous), 48 hours
[8] = 3% Acetic Acid (aqueous), 72 hours

With CCCCCCC[CH2][Sn]([S]CC(=O)OCCCCCC(C)C)([S]CC(=O)OCCCCCC(C)C)[S]CC(=O)OCCCCCC(C)C [A, mono-n-octyltin-S,S',S"--tris(isooctyl mercaptoacetate)] the no-effect level (beagle dogs; beagle dogs, 13 weeks, in food) was 300 parts per million, the “no effect level (in words)” value (beagle dogs; long term feeding studies) was “sufficiently low” and the “relative acute toxicity (in words)” value ([1]; isooctylmercaptoacetate derivatives, mono- vs di- and tri-n-octyltin) was “the least toxic”. For the same molecule, the “toxicity relative to corresponding di-n-octyltin compound (in words)” value ([1]; vs di-n-octyltin compound of Gloskey patent) was “less toxic than the corresponding di-n-octyltin compound”, the “Tin Content” value [2, 6] was 0.02 ppm and the “Tin Content” value [2, 7] was 0.03 ppm. For the same molecule, the “Tin Content” value [2, 8] was 0.02 ppm, the “Tin Content” value ([2]; 8% Ethanol (aqueous), 24 hours) was 0.00 ppm and the “Tin Content” value ([2]; 50% Ethanol, 24 hours) was 0.01 ppm. For the same molecule, the “Tin Content” value ([2]; 50% Ethanol, 48 hours) was 0.02 ppm, the “Tin Content” value ([2]; 50% Ethanol, 72 hours) was 0.02 ppm and the “Tin Content” value ([2]; Distilled Water, 72 hours) was 0.00 ppm. For the same molecule, the “Tin Content” value ([2]; Distilled Water, 96 hours) was 0.00 ppm, the “Tin Content” value ([2]; Distilled Water, 120 hours) was 0.00 ppm and the “Tin Content” value ([2]; Heptane, 6 hours) was 0.02 ppm. The “Tin Content” value ([2]; Heptane, 8 hours) was 0.03 ppm, the “Tin Content” value ([2]; Heptane, 10 hours) was 0.03 ppm and the “amount of stabilizer extracted” value [3] was no more than 0.05 mg. per square decimeter. For the same molecule, the “acute oral median lethal dose (LD50)” value (albino rats; male albino rats, oral intubation, undiluted, 14 days observation) was 2.48 g. per kilogram of weight and the “LD50 relative to other conventional organotin stabilizers (in words)” value (albino rats; vs other conventional organotin compounds employed as non-toxic stabilizers) was “considerably higher than the values for other conventional organotin compounds”.

For CCCCCCC[CH2][Sn]([CH2]CCCCCCC)([S]CC(=O)OCCCCCC(C)C)[S]CC(=O)OCCCCCC(C)C [B, di-n-octyltin-S,S'--bis(isooctyl mercaptoacetate), reference compound], the “LD50 (lethal dose for 1/2 the population)” value (rats) is listed as 1975 mg per kilogram of body weight, the “Tin Content” value [2, 6] is listed as 0.00 ppm and the “Tin Content” value [2, 7] is listed as 0.00 ppm. The “Tin Content” value [2, 8] was 0.00 ppm, the “Tin Content” value ([2]; 8% Ethanol (aqueous), 24 hours) was 0.00 ppm and the “Tin Content” value ([2]; 50% Ethanol, 24 hours) was 0.03 ppm. For the same molecule, the “Tin Content” value ([2]; 50% Ethanol, 48 hours) was 0.05 ppm, the “Tin Content” value ([2]; 50% Ethanol, 72 hours) was 0.03 ppm and the “Tin Content” value ([2]; Distilled Water, 72 hours) was 0.00 ppm. For the same molecule, the “Tin Content” value ([2]; Distilled Water, 96 hours) was 0.00 ppm, the “Tin Content” value ([2]; Distilled Water, 120 hours) was 0.00 ppm and the “Tin Content” value ([2]; Heptane, 6 hours) was 0.03 ppm. For the same molecule, the “Tin Content” value ([2]; Heptane, 8 hours) was 0.02 ppm and the “Tin Content” value ([2]; Heptane, 10 hours) was 0.02 ppm.

For CCCCCCC[CH2][Sn]([Cl])([Cl])[Cl] [monooctyltin trichloride], the “acute oral toxicity (relative, in words)” value [4] is listed as “greater than the toxicity of either dioctyltin dichloride or trioctyltin chloride” and the “acute oral toxicity (relative, in words)” value ([4]; listed as mono-n-octyltin trichloride) is listed as “significantly more severe than the corresponding di- or tri-n-octyltin chlorides”.

For [Cl][Sn][Cl] [stannous chloride], the “toxicity (in words)” value [5] is listed as “relatively little, if any, toxicity”.

In the case of bis(tri-n-octyltin) sulfate, the “LD50 (lethal dose for 1/2 the population)” value (rats) is given as “greater than 6,000 mg per kilogram of body weight”.

For di-n-octyltin maleate, the “LD50 (lethal dose for 1/2 the population)” value (rats) is given as 4,500 mg per kilogram of body weight.
